Test results published in patent US8703970B2, “Compounds having photochemically removable protecting groups based on an electrocyclic reaction between a chromophore attached via an anilide group to a benzothiophene ring” (Marquette University, priority 2012, dated 2014).
Read-outs that look alike come from different tables or passages of the source.

What was measured:
Absorption spectra = assay type: physicochemical; conditions: for ε at absorption maximum: 385 nm; for ε at absorption maximum / absorption maximum: aqueous dioxane or acetonitrile
Protocol: (§1) For the ester ε=5600 M^−1 cm^−1, while the acid has ε=4200 M^−1 cm^−1. For preparative photolyses Pyrex-filtered light from a Hanovia medium pressure mercury lamp was used. A sunlamp was also effective at photolysing all of the compounds in the study. Quantum yields were determined at 390 nm using a monochromator for wavelength selection utilizing a high pressure mercury lamp as the light source.
Photoproduct 26 was identified by ^1H NMR spectroscopy and elemental analysis. […] Regioisomer 28 would have shown only four vicinal couplings in the COSY spectrum. […] The compound was obtainable only as a powder, despite repeated attempts to obtain crystals for structure determination using X-ray diffraction.

[1] = Product quantum yield determination for photochemical leaving group expulsion at 390 nm; assay type: physicochemical; conditions: for product quantum yield Φ: N2 saturated 19% H2O in dioxane containing 100 mM buffer (1.8×10^−3 M for 8; similar conditions for 7), products quantified by NMR; for quantum yield Φ for formation of 27: 2.0×10^−3 M acid in N2 saturated 75% aq buffer in CH3CN
Protocol: as §1
A semi-micro optical bench was used for quantum yield determinations, similar to the apparatus described by Zimmerman.^32 Light from a 200 W high-pressure mercury lamp was passed through an Oriel monochromator, which was set to 390 nm wavelengths. The light was collimated through a lens. A fraction of the light was diverted 90° by a beam splitter to a 10×3.6 cm side quartz cylindrical cell containing an actinometer. The photolysate was contained in a 10×1.8 cm quartz cylindrical cell of 25 mL volume. The concentrations of the reactants were 0.0018-0.0030 M. All quantum yields reported herein were the average of two or more independent runs. Behind the photolysate was mounted a quartz cylindrical cell containing 25 mL of actinometer. Light output was monitored by ferrioxalate actinometery using the splitting ratio technique.
For 7 (LG^−=Cl^−), 8 (LG^−=Cl^−), and 10 (LG^−=Cl^−) 50 mL of water was added to the photolysate, and the diluted photolysate was extracted four times with 30 mL of CH2Cl2. The combined extracts were washed twice with 30 mL water, brine, and concentrated in vacuo. The residue was dissolved in d6-DMSO. DMF was added as a standard for NMR analyses (vide infra). However, for 7 (LG^−=Cl^−) the NMR solvent was CDCl3 and the NMR standard was DMSO.
For 9 (LG^−=Cl^−, PhS^−, HS^−, PhCH2S^−) the photolysate was adjusted to pH 2 by addition of 3 N HCl. The resultant precipitate was collected by suction filtration and washed with 50 mL water. The precipitate was transferred to a flask, and any untransferred precipitate was dissolved in DMSO and combined with the transferred precipitate. The DMSO was evaporated to dryness under vacuum and DMSO-d6 was added along with DMF as a standard for NMR analysis.
Products were analyzed by ^1H NMR spectroscopy using DMF or DMSO as the internal standard and conversions were 12-16%. At the concentrations used most of the incident light would have been absorbed near the front face of the photolysis cell, raising the concern that the photoproducts formed during the photolyses could competitively absorb the incident light, reducing the light absorbed by the reactants. This internal filter effect would depress the observed Φ values below the actual values. In the case of 8 (LG^−=Cl^−) the Φ was thus redetermined at an 18-fold lower concentration of 1.0×10^−4 M of reactant and found to be within experimental error of the value obtained at higher concentration at 14% conversions for duplicate runs. Due to the very low concentrations of the photoproduct 26 formed, it had to be quantified by absorption spectroscopy of the exposed photolysates without any workup. The product absorption at 432 nm was deconvoluted from the tailing absorption of reactant using Origin 8.6 software (OriginLab). After deconvolution, concentrations were obtained from a calibration curve constructed from known mixtures of reactant and product.

[2] = Preparative photolysis with Pyrex-filtered Hanovia medium pressure mercury lamp, products quantified by NMR; assay type: physicochemical; conditions: for chemical yield of leaving group expulsion / photoproduct formation in preparative photolysis: N2 saturated aqueous 100 mM phosphate buffer (pH 7) in CH3CN, NMR integration
Protocol: as §1
Similarly, preparative photolysis of […] acid 9 (LG^−=Cl^−) in N2 saturated 75% H2O in CH3CN containing 100 mM phosphate buffer (pH 7) gave the single regioisomeric photoproduct 27 in 98% yield by NMR integration, as above for 8 (LG^−=Cl^−). The regiospecificity was again established by 600 MHz ^1H NMR COSY. […] Photolysis of acid 9 (LG^−=PhS^−, HS^−, PhCH2S^−) under the same conditions as 8 (LG^−=Cl^−) also gave photoproduct 27 in 98-100% yields upon expulsion of these thiolate leaving groups. For acid 9 (LG^−=PhCH2S^−) the released benzyl thiol was quantified in photolyses of 4.5×10^−3 M solutions of 35% D2O in CD3CN containing phosphate buffer (as above) contained in NMR tubes. Yields were 96% thiol and 99% of 27 at 100% conversion of reactant by ^1H NMR spectroscopy. Very similar results were found when DMSO-d6 was the photolysis solvent.
The regiospecific formation of 26 or 27 in the preparative photolyses of ester 8 or acids 9 requires the presence of the ester and carboxylic acid substituents attached to the C-6 position of the benzothiophene ring system of the reactants. In contrast, photolyses of the unsubstituted benzothiophene ring system 7 (LG^−=Cl^−) in 16% water containing 100 mM phosphate buffer in CH3CN gave both regioisomeric photoproducts 30 and 31 as a 42:58 mixture, respectively, in 100% yield according to 400 MHz ^1H NMR spectroscopy (Scheme 6).
To determine whether a “heavy atom effect” promoted intersystem crossing of the singlet excited state to the triplet excited state, work focused upon the C-7 bromide of thioxanthone ester 10 (LG^−=Cl^−). Preparative photolysis of ester 10 in N2 saturated 19% H2O in CH3CN containing 100 mM phosphate buffer (pH 7), as above for ester 8 (LG^−=Cl^−), exclusively gave regioisomer 32 in 99% yield, and 33 was not observed by ^1H NMR spectroscopy of the photolysate (Scheme 7).
A 0.010 M solution of 8 (LG^−=Cl^−) in N2 saturated 17% H2O in CH3CN containing 100 mM phosphate buffer at pH 7 was irradiated with a 450 W Hanovia medium pressure mercury lamp with a Pyrex filter for 90 min. The photoproduct was isolated by filtration. The photoproduct was washed with H2O and a small amount of CHCl3 and dried under vacuum. The product was a yellow powder, mp >300° C. […] A COSY spectrum in d6-DMSO was obtained (see Supporting Information).
A 0.010 M solution of 13 (LG^−=Cl^−) in N2 saturated 75% H2O in CH3CN containing 100 mM phosphate buffer at pH 7 was irradiated with a 450 W Hanovia medium pressure mercury lamp with Pyrex filter for 90 min. The photolysate was acidified to pH 2 with conc. HCl to precipitate the photoproduct carboxylic acid 27. The photoproduct was obtained by filtration, washing with H2O, and drying under vacuum, as a yellow powder, mp >300° C.
A 0.010 M solution of 7 (LG^−=Cl^−) in N2 saturated 17% H2O in CH3CN containing 100 mM phosphate buffer at pH 7 was irradiated with a 450 W Hanovia medium pressure mercury lamp with a Pyrex filter for 90 min. The photoproduct was isolated by filtration as a mixture of two isomers, 30, 31. The mixture of product isomers was dissolved in hot DMSO. Solid photoproduct isomer 31 was obtained upon cooling of the hot DMSO and filtration. Photoproduct isomer 31 was washed with water and methanol and dried under vacuum to obtain 31 as floppy powder, mp >300° C. Solid photoproduct isomer 30 was obtained upon addition of water to the above DMSO filtrate by filtration, after washing with water and methanol. The photoproduct isomer 30 was crystallized from CHCl3 to give a yellow crystalline solid, mp 271-273° C. […]

[3] = Stern-Volmer quenching of the photoreaction by piperylene; assay type: physicochemical
Source text: In air-saturated solution quantum yields for ester 8 (LG^−=Cl^−) decreased to Φ=0.019. […] Furthermore, quenching by 9.2-37×10^−[…] piperylene as quencher Q gave a slope kqτ=7.03×10^4 M^−1 for a Stern-Volmer plot Φ°/Φ vs. [Q](data not shown). If it is assumed that kq=ca. 10^10 M^−1 s^−1, then τ would be ca. 7 μs.

[4] = Photolysis with 120 W sunlamp for 72 h; assay type: physicochemical; conditions: gives exclusively product 26 or 27
Protocol: The photolyses of ester 8 (LG^−=Cl^−) and acids 9 (LG^−=Cl^−, PhS^−, HS^−, PhCH2S) were repeated with a 120 W sunlamp for 72 h under otherwise the same conditions described above for the Hanovia runs.

[5] = cited from earlier work
[6] = 4.5×10^−3 M in 35% D2O in CD3CN containing phosphate buffer, 100% conversion, 1H NMR

Row | Compound | product quantum yield Φ ([1]; 390 nm) | chemical yield of leaving group expulsion / photoproduct formation in preparative photolysis [2] | leaving group expulsion with sunlamp [4] | melting point | quantum yield Φ for formation of 27 ([1]; 390 nm) | further results
1 | 6-methylcarboxylate-[1]benzothiopheno[2,3-c]benzo[a]anthracene-4-methyl-4H-7-thia-4-aza-3,12-dione [compound 26] | – | – | – | – | – | ε at long wavelength maximum (Absorption spectra; 432 nm, aq dioxane containing phosphate buffer): 10300 M⁻¹ cm⁻¹; long wavelength absorption maximum (Absorption spectra; aq dioxane containing phosphate buffer): 432 nm
2 | CN(C(=O)c1sc2ccccc2c1Cl)c1ccc2sc3ccccc3c(=O)c2c1 [7 (LG^−=Cl^−), 3-chloro-benzo[b]thiophene-2-carboxylic acid methyl-(9-oxo-9H-thioxanthen-2-yl)amide] | 0.069 | 100% | – | – | – | –
3 | COC(=O)c1ccc2c(Cl)c(C(=O)N(C)c3ccc4sc5ccccc5c(=O)c4c3)sc2c1 [8 (LG^−=Cl^−), 3-chloro-2-[methyl-(9-oxo-9H-thiozanthen-2-yl)-carbamoyl]-benzo[b]thiophene-6-carboxylic acid methyl ester] | 0.039 | nearly quantitative | essentially quantitatively | – | – | Stern-Volmer slope kqτ ([3]; 9.2-37×10^−6 M piperylene as quencher, plot Φ°/Φ vs. [Q]): 70300 M⁻¹; triplet excited state lifetime τ ([3]; assuming kq=ca. 10^10 M^−1 s^−1): ca. 7 μs; ε at absorption maximum (Absorption spectra): 5600 M⁻¹ cm⁻¹; absorption maximum (Absorption spectra): 385 nm; quantum yield Φ for photoproduct 26 ([1]; 390 nm, reactant concentration 1.0×10^−4 M, photoproduct quantified by absorption spectroscopy): 0.037; quantum yield Φ ([1]; air-saturated solution): 0.019; quantum yields for reaction (photorelease of leaving group), overall ([1]; depending on LG^− basicity or reactant concentration): 0.037-0.039
4 | CN(C(=O)c1sc2cc(C(=O)O)ccc2c1Cl)c1ccc2sc3ccccc3c(=O)c2c1 [9 (LG^−=Cl^−), 3-chloro-2-[methyl-(9-oxo-9H-thioxanthen-2-yl)-carbamoyl]-benzo[b]thiophene-6-carboxylic acid] | – | 98% | essentially quantitatively | 286 to 287 °C | 0.034 | ε at absorption maximum (Absorption spectra): 4200 M⁻¹ cm⁻¹; absorption maximum (Absorption spectra): 385 nm
5 | CN(C(=O)c1sc2cc(C(=O)O)ccc2c1S)c1ccc2sc3ccccc3c(=O)c2c1 [9 (LG^−=HS^−), 3-mercapto-2-[methyl-(9-oxo-9H-thioxanthen-2-yl)-carbamoyl]-benzo[b]thiophene-6-carboxylic acid] | – | – | essentially quantitatively | 210 to 212 °C | 0.0079 | –
6 | CN(C(=O)c1sc2cc(C(=O)O)ccc2c1SCc1ccccc1)c1ccc2sc3ccccc3c(=O)c2c1 [9 (LG^−=PhCH2S^−), 3-benzylsulfanyl-2-[methyl-(9-oxo-9H-thioxanthen-2-yl)-carbamoyl]-benzo[b]thiophene-6-carboxylic acid] | – | – | essentially quantitatively | 151 to 152 °C | 0.011 | yield of 27 [2, 6]: 99%; yield of released benzyl thiol [2, 6]: 96%
7 | CN(C(=O)c1sc2cc(C(=O)O)ccc2c1Sc1ccccc1)c1ccc2sc3ccccc3c(=O)c2c1 [9 (LG^−=PhS^−), 2-[methyl-(9-oxo-9H-thioxanthen-2-yl)-carbamoyl]-3-phenylsulfanyl-benzo[b]thiophene-6-carboxylic acid] | – | – | essentially quantitatively | 278 to 279 °C | 0.017 | –
8 | COC(=O)c1ccc2c(Cl)c(C(=O)N(C)c3ccc4sc5ccc(Br)cc5c(=O)c4c3)sc2c1 [10 (LG^−=Cl^−), 2-[(7-bromo-9-oxo-9H-thioxanthen-2-yl)-methyl-carbamoyl]-3-chloro-benzo[b]thiophene-6-carboxylic acid methyl ester] | 0.053 | 99% | – | 237 to 239 °C | – | quantum yield higher than Φ=0.039 of ester 8 (LG^−=Cl^−) ([1]; bromo ester 10 vs ester 8): 38%
9 | O=c1c2ccccc2sc2ccccc12 [thioxanthone] | – | – | – | – | – | triplet lifetime ([5]; in CH3CN): 6.7 μs; triplet yield ([5]; nonpolar hydrocarbon solvent (cyclohexane)): 0.85; triplet lifetime ([5]; polar protic solvent (methanol)): 13.3 μs; triplet yield ([5]; polar, protic solvent (CH3OH)): 0.56
